These results are taken from patent US5084463A, “N-quinolinyl alkyl-substituted 1-aryloxy-2-propanolamine and propylamine derivatives possessing class III antiarrhythmic activity” (American Home Products Corporation, priority 1990, dated 1992).

One test deals with Dog. The experiment in a line: Ventricular fibrillation threshold in dog. It counts as in vivo, mongrel dog. Conditions: 5 mg/kg i.v. On the procedure:
VENTRICULAR FIBRILLATION THRESHOLD
Mongrel dogs of both sexes weighing 12 to 18 kg were anesthetized with sodium pentobarbital (35 mg/kg i.v. supplemented with 5 mg/kg/h) and artificially ventilated with room air (minute volume: 200 mL/kg).
A right thoracotomy was performed at the fifth intercostal space and the heart suspended in a pericardial cradle. Bipolar electrodes for stimulation were sutured to the free wall of the right atrium and to the right ventricle.
The dog heart was paced by a stimulus for driving a constant current isolation unit.
Ventricular fibrillation threshold (VFT) was determined during atrial pacing at […]. Trains of 4-msec duration square-wave pulses (50 Hz, 200-msec duration) were delivered to the right ventricle via the epicardial bipolar electrode (silver contacts 1 mm in diameter and 5 mm apart embedded in acrylic matrix). Trains of pulses were delivered every 12th paced beat and were timed to terminate with the end of the T wave of the ECG. Current intensity was increased progressively until ventricular fibrillation (VF) occurred. The lowest current intensity producing VF was defined as the ventricular fibrillation threshold (VFT). […] VFT was measured twice before drug administration to establish a stable pre-drug threshold. […]

Another test deals with Purkinje Fiber. The experiment in a line: Cardiac electrophysiology in vitro: action potential parameters of dog Purkinje fibers. It counts as cell-based. Conditions: 3 μM, BCL = 300. On the procedure:
Bundles of free-running Purkinje fibers with attached myocardium obtained from either ventricle of adult dog heart were pinned without stretching to the bottom of a 10 mL tissue chamber and continuously superfused with oxygenated Tyrode's solution at a flow rate of 5 mL/minute. The composition of the Tyrode's solution was (mM): NaCl, 138; KCl 4; CaCl2, 2; MgCl2, 0.5; NaHCO3, 24; dextrose, 5.5. The solution was aerated with 95% O2 --5% CO2 at 37° C. Bath temperature was maintained at 37°±0.5° C. by circulating the pre-warmed superfusate through a thermostatically controlled water bath immediately prior to entering the tissue chamber. […] The first derivative of the action potential upstroke (Vmax) was obtained using an analog differentiator circuit, coupled to a peak-hold circuit that retained the recorded value of Vmax for 30 to 70-msec. […] Action potential (AP) parameters measured included: diastolic take-off potential (or activation voltage, V(act); AP overshoot (Vos); AP duration measured as the time taken to repolarize to -20 mV (APD-20), -60 mV (APD-60), and -80 mV (APD-80); and maximal upstroke velocity (Vmax). An increase in APD-60 that occurred without a significant change in Vmax was taken, by definition, to indicate Class III antiarrhythmic activity "in vitro".

The conditions of test [1]: dextro enantiomer; Taggart et al. 1985, McComb et al. 1985; cited from earlier work.

Take `CN(Cc1ccc2ccccc2n1)CC(O)COc1ccc(NS(C)(=O)=O)cc1` (stereo not shown) [Example 4, N-[4-[2-Hydroxy-3-[methyl(2-quinolinylmethyl)amino]propoxy]phenyl]methanesulfonamide]: the “Ventricular fibrillation threshold (current threshold necessary to induce fibrillation)” value in the test on Dog (n = 6, x + S.E., pre-drug vehicle 8 + 2) is given as 25 + 7 mA. Also, the animals defibrillated spontaneously in the test on Dog (of 6 animals) came to 2 animals.
With `CN(Cc1ccc2ccccc2n1)CC(O)COc1ccc([N+](=O)[O-])cc1.Cl.Cl` (stereo not shown) [Example 3, 1-[Methyl(2-quinolinylmethyl)amino]-3-(4-nitrophenoxy)-2-propanol Dihydrochloride], the APD-60 entry with Purkinje Fiber is on record as “did not pace”.
As for `CC(C)NCC(O)c1ccc(NS(C)(=O)=O)cc1` (stereo not shown) [Sotalol, 4-(2-isopropylamino-1-hydroxyethyl)-methanesulfonamide], the “selective Class III antiarrhythmic activity” value in test [1] is on record as “selective Class III antiarrhythmic activity”.
